Patent publication US20060199856A1, “Novel compounds as anti-inflammatory, immunomodulatory and anti-proliferatory agents” (4 SC AG, priority 2001, published 2006)
Where two headings read alike, the source gives them in different places.

Legend:
Format in all cases: biochemical
recombinant human DHODH = molecular target: T1, recombinant human DHODH (Homo sapiens, UniProt Q02127); test: Inhibition assay of DHODH activity (human enzyme)
T1 construct: provided by Prof; M. Löffler, Marburg, Germany (gift, not purchased)
Description: (§1) The standard assay mixture contained 50 μM decyclo ubichinone, 100 μM dihydroorotate, 60 μM 2,6-dichloroindophenol, as well as 20 mU DHODH. The volume activity of the recombinant enzyme used was 30 U/ml. Measurements were conducted in 50 mM TrisHCl (150 mM KCl, 0,1% Triton X-100, pH. 8,0) at 30° C. in a final volume of 1 ml. The components were mixed, and the reaction was started by adding dihydroorotate. The course of reaction was followed by spectrophotometrically measuring the decrease in absorption at 600 nm for 2 min.
(§2) Inhibitory studies were conducted in a standard assay with additional variable amounts of inhibitor.
(§3) These investigations were carried out with recombinant human as well as with recombinant murine DHODH provided by Prof. M. Löffler, Marburg, Germany [M. Löffler, Chem. Biol. Interact.

DHODH = DHODH (Rattus norvegicus, UniProt Q63707); test: Inhibition assay of DHODH activity (rat enzyme, head printed 'rate')
Description: as §1, §2

recombinant murine DHODH = molecular target: T2, recombinant murine DHODH (Mus musculus, UniProt O35435); test: Inhibition assay of DHODH activity (murine enzyme); details: class symbols (in nM)
T2 construct: provided by Prof; M. Löffler, Marburg, Germany (gift, not purchased)
Description: as §1, §2, §3

[1] = recombinant human DHODH, class symbols (in nM), read-out: human IC50-Value
[2] = class symbols (in nM), read-out: rate IC50-Value

Sequence of DHODH (Q63707 whole entry): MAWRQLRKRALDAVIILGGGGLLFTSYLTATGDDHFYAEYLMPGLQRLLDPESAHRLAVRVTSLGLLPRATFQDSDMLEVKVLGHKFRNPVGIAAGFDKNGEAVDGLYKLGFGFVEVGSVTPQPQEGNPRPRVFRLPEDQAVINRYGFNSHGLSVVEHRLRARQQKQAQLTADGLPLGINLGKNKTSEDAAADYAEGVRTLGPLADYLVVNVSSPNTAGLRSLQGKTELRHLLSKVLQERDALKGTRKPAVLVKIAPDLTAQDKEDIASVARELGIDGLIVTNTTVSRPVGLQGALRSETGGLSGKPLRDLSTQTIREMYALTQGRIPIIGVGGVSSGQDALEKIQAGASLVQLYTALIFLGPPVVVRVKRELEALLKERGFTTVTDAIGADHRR
T1 sequence (Q02127 whole entry): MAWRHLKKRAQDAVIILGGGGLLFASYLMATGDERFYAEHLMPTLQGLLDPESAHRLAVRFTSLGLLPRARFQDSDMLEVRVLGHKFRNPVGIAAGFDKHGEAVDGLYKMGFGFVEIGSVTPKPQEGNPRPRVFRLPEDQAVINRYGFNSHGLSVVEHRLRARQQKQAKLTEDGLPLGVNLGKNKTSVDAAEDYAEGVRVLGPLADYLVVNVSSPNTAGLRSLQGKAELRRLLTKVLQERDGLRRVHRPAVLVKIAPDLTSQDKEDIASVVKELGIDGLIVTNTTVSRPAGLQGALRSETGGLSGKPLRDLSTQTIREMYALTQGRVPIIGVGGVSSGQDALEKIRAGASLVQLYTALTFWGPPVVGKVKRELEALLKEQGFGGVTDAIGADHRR
T2 sequence (O35435 whole entry): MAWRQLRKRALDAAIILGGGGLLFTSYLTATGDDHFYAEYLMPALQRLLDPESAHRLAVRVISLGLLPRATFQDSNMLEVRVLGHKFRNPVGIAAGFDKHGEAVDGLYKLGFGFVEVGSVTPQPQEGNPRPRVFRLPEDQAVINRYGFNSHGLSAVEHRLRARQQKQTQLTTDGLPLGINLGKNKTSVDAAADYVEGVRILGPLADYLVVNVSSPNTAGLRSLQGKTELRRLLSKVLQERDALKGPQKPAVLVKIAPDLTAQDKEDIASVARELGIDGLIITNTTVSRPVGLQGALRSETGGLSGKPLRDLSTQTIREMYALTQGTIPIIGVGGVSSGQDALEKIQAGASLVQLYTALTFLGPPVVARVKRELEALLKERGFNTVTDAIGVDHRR

SMILES | IC50 (recombinant human DHODH; [1]) [nM] | IC50 (DHODH; [2]) [nM] | other results
COc1cccc(-c2ccc(NC(=O)C3=C(C(=O)O)CCC3)c(OC)c2)c1 [Compound 39] | < 800 | – | –
O=C(O)C1=C(C(=O)Nc2ccc(-c3ccccc3Cl)cc2)CSC1 [Compound 41] | < 800 | > 1500 | –
Cc1cccc(Sc2ccc(NC(=O)C3=C(C(=O)O)CCC3)cc2)c1 [Compound 42] | < 800 | < 800 | –
O=C(O)C1=C(C(=O)Nc2ccc(-c3cccc(OC(F)(F)F)c3)cc2)CCC1 [Compound 43] | < 800 | – | –
O=C(O)C1=C(C(=O)Nc2ccc(-c3cc4ccccc4s3)cc2)CCC1 [Compound 44] | < 800 | – | –
O=C(O)C1=C(C(=O)Nc2ccc(-c3cc4ccccc4s3)cc2F)CCC1 [Compound 45] | < 800 | – | –
CCOc1cccc(-c2ccc(NC(=O)C3=C(C(=O)O)CCC3)c(F)c2)c1 [Compound 46] | < 800 | > 1500 | –
COc1cc(-c2ccc(NC(=O)C3=C(C(=O)O)CCC3)c(OC)c2)ccc1NC(=O)C1=C(C(=O)O)CCC1 [Compound 48] | > 1500 | – | –
O=C(O)C1=C(C(=O)Nc2ccc(-c3ccccc3)cc2)CS(=O)(=O)C1 [Compound 49] | > 1500 | – | –
O=C(O)C1=C(C(=O)Nc2ccc(Oc3ccccc3)cc2)CCC1 [Compound 50] | < 800 | < 800 | –
O=C(O)C1=C(C(=O)Nc2ccc(Oc3ccccc3)cc2)COC1 [Compound 51] | > 1500 | – | –
COc1ccccc1-c1ccc(NC(=O)C2=C(C(=O)O)CCC2)c(Cl)c1 [Compound 53] | < 800 | 800 to 1500 | –
COc1ccccc1-c1ccc(NC(=O)C2=C(C(=O)O)CCC2)cc1Cl [Compound 54] | < 800 | < 800 | –
COc1ccccc1-c1ccc(NC(=O)C2=C(C(=O)O)CCC2)c(C(F)(F)F)c1 [Compound 55] | > 1500 | – | –
COc1ccccc1-c1c(F)c(F)c(NC(=O)C2=C(C(=O)O)CCC2)c(F)c1F [Compound 56] | – | – | IC50 (DHODH): < 800 nM; IC50 (recombinant human DHODH): < 800 nM
COc1ccccc1-c1ccc(NC(=O)C2=C(C(=O)O)CCC2)c(C)c1 [Compound 57] | < 800 | 800 to 1500 | –
COc1ccccc1-c1cc(Cl)c(NC(=O)C2=C(C(=O)O)CCC2)c(Cl)c1 [Compound 58] | < 800 | 800 to 1500 | –

SMILES | IC50 (recombinant human DHODH; [1]) [nM] | IC50 (DHODH; [2]) [nM] | other results
COc1ccc(Oc2ccc(C(F)(F)F)cc2NC(=O)C2=C(C(=O)O)CCC2)cc1 [Compound 59] | > 1500 | – | –
O=C(O)C1=C(C(=O)Nc2ccc(Oc3ccc(F)cc3F)cc2)CCC1 [Compound 60] | 800 to 1500 | – | –
O=C(O)C1=C(C(=O)Nc2ccc(Oc3ccc(Cl)cc3)cc2)CCC1 [Compound 61] | > 1500 | – | –
CCOc1ccccc1-c1cc(F)c(NC(=O)C2=C(C(=O)O)CCC2)c(F)c1 [Compound 62] | < 800 | < 800 | –
CCOc1cccc(-c2cc(F)c(NC(=O)C3=C(C(=O)O)CCC3)c(F)c2)c1 [Compound 63] | < 800 | < 800 | –
O=C(O)C1=C(C(=O)Nc2c(F)cc(-c3cccc(OC(F)(F)F)c3)cc2F)CCC1 [Compound 64] | < 800 | – | –
O=C(O)C1=C(C(=O)Nc2c(F)cc(-c3ccccc3Cl)cc2F)CCC1 [Compound 65] | < 800 | – | –
O=C(O)C1=C(C(=O)Nc2c(F)cc(-c3ccccc3F)cc2F)CCC1 [Compound 66] | < 800 | – | –
COc1ccc(-c2cc(F)c(NC(=O)C3=C(C(=O)O)CCC3)c(F)c2)c(OC)c1 [Compound 67] | < 800 | – | –
O=C(O)C1=C(C(=O)Nc2ccc(OCc3ccccc3C(F)(F)F)c(Cl)c2)CCC1 [Compound 68] | < 800 | > 1500 | –
O=C(O)C1=C(C(=O)NCCCCc2ccccc2)CCC1 [Compound 70] | > 1500 | – | –
O=C(O)C1=C(C(=O)NC2CC2c2ccccc2)CCC1 (stereo not drawn) [Compound 71] | > 1500 | – | –
O=C(O)C1=C(C(=O)Nc2ccc(OCc3ccccc3)c(Cl)c2)CCC1 [Compound 72] | < 800 | – | –
CN(C(=O)C1=C(C(=O)O)CCC1)c1ccc(-c2ccccc2)cc1 [Compound 73] | > 1500 | – | –
O=C(O)C1=C(C(=O)Nc2ccc(OCc3ccccc3F)c(Cl)c2)CCC1 [Compound 74] | < 800 | – | –
O=C(O)C1=C(C(=O)Oc2ccc(-c3ccccc3)cc2)CCC1 [Compound 75] | > 1500 | – | –
COc1ccccc1-c1ccc(OC(=O)C2=C(C(=O)O)CCC2)c(F)c1 [Compound 76] | < 800 | < 800 | IC50 (recombinant murine DHODH): 800 to 1500 nM
